Measurements as given in PubChem BioAssay (NCI).
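Growth conditions: 96-well plates. Treatment: test compound, 48 hours, 5 concentrations. Analysis: linear interpolation between bracketing concentrations; unreached endpoints set to highest concentration. TGI: concentration producing complete growth inhibition.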

The compounds below were run on MOLT-4 leukemia (assay: growth of human tumour cells (NCI), 48 h).
Compound `N#C/C(=C\c1cn(Cc2ccccc2)c2ccccc12)c1nn(-c2ccccc2)c(N)c1C#N` has a TGI greater than 100 µM.
Work on `CO[C@H]1c2cccc3cccc(c23)[C@@H]1n1[nH]c(=O)n(C(C)(C)C)c1=O` yielded a TGI greater than 100 µM.
For `CCC(C)C(C(=O)N/N=C1/SCC(=O)N1c1ccccc1)C(=O)N/N=C1/SCC(=O)N1c1ccccc1` (stereo unspecified), the TGI was greater than 100 µM.
`Cc1c(C)c2c(c(N)c1C#N)C(=O)N(CCc1ccccc1)C2=O` gave a TGI greater than 100 µM.

Each compound was assayed on NCI-H226 lung (assay: growth of human tumour cells (NCI), 48 h).
`Nc1nc(N)c2cc(Sc3ccc4nc(N)nc(N)c4c3)ccc2n1` was tested, and the TGI was greater than 100 µM.
`Cc1cc([C@H](C#N)c2nc3ccccc3[nH]2)nc(Cl)n1` gave a TGI greater than 100 µM.
`CN(C)C=Nc1cccc2nsnc12` showed a TGI greater than 100 µM.
`COc1cccc(OC/C(N=Cc2cccnc2)=N/NC(=O)c2ccncc2)c1` was tested, and the TGI was greater than 100 µM.
In the case of `COC(=O)c1c(O)ccc2c1c1c(n2Cc2ccccc2)C(=O)c2ccccc2C1=O`, the TGI is reported as 39.6 µM.
`CO[C@H]1c2cccc3cccc(c23)[C@@H]1n1[nH]c(=O)n(C(C)(C)C)c1=O` gave a TGI greater than 100 µM.
With `Cc1c(C)c2c(c(N)c1C#N)C(=O)N(CCc1ccccc1)C2=O` the TGI was greater than 100 µM.

These compounds were tested on OVCAR-4 ovarian (assay: growth of human tumour cells (NCI), 48 h).
`Nc1nc(N)c2cc(Sc3ccc4nc(N)nc(N)c4c3)ccc2n1` gave a TGI greater than 100 µM.
For `CC1=NN(C(=O)CC(=O)Nc2ccc(C)cc2)C(=O)C1N=Nc1ccc(C(=O)O)cc1` (stereo unspecified), the TGI was greater than 100 µM.
`Cc1cc([C@H](C#N)c2nc3ccccc3[nH]2)nc(Cl)n1` was tested, and the TGI was greater than 100 µM.
With `CN(C)C=Nc1cccc2nsnc12` the TGI was greater than 100 µM.
Compound `COc1cccc(OC/C(N=Cc2cccnc2)=N/NC(=O)c2ccncc2)c1` has a TGI greater than 100 µM.
For `COC(=O)c1c(O)ccc2c1c1c(n2Cc2ccccc2)C(=O)c2ccccc2C1=O`, the TGI was 24.3 µM.
In the case of `N#C/C(=C\c1cn(Cc2ccccc2)c2ccccc12)c1nn(-c2ccccc2)c(N)c1C#N`, the TGI is reported as 13.7 µM.
`CO[C@H]1c2cccc3cccc(c23)[C@@H]1n1[nH]c(=O)n(C(C)(C)C)c1=O` showed a TGI greater than 100 µM.
`CCC(C)C(C(=O)N/N=C1/SCC(=O)N1c1ccccc1)C(=O)N/N=C1/SCC(=O)N1c1ccccc1` (stereo unspecified) was tested, and the TGI was 33.3 µM.
Compound `Cc1c(C)c2c(c(N)c1C#N)C(=O)N(CCc1ccccc1)C2=O` has a TGI greater than 100 µM.

What follows are compounds tested on OVCAR-5 ovarian (assay: growth of human tumour cells (NCI), 48 h).
`Nc1nc(N)c2cc(Sc3ccc4nc(N)nc(N)c4c3)ccc2n1` gave a TGI greater than 100 µM.
In the case of `COc1ccc2c(c1)/C(=C\c1c(C)nc3n1CCS3)C(=O)N2`, the TGI is reported as greater than 100 µM.
For `CC1=NN(C(=O)CC(=O)Nc2ccc(C)cc2)C(=O)C1N=Nc1ccc(C(=O)O)cc1` (stereo unspecified), the TGI was greater than 100 µM.
`CN(C)C=Nc1cccc2nsnc12` gave a TGI greater than 100 µM.
`COc1cccc(OC/C(N=Cc2cccnc2)=N/NC(=O)c2ccncc2)c1` showed a TGI greater than 100 µM.
`COC(=O)c1c(O)ccc2c1c1c(n2Cc2ccccc2)C(=O)c2ccccc2C1=O` was tested, and the TGI was 39.2 µM.
Compound `N#C/C(=C\c1cn(Cc2ccccc2)c2ccccc12)c1nn(-c2ccccc2)c(N)c1C#N` has a TGI of 51.5 µM.
With `CO[C@H]1c2cccc3cccc(c23)[C@@H]1n1[nH]c(=O)n(C(C)(C)C)c1=O` the TGI was greater than 100 µM.
`CCC(C)C(C(=O)N/N=C1/SCC(=O)N1c1ccccc1)C(=O)N/N=C1/SCC(=O)N1c1ccccc1` (stereo unspecified) showed a TGI greater than 100 µM.
With `Cc1c(C)c2c(c(N)c1C#N)C(=O)N(CCc1ccccc1)C2=O` the TGI was greater than 100 µM.

The compounds below were run on OVCAR-8 ovarian (assay: growth of human tumour cells (NCI), 48 h).
In the case of `Nc1nc(N)c2cc(Sc3ccc4nc(N)nc(N)c4c3)ccc2n1`, the TGI is reported as greater than 100 µM.
With `COc1ccc2c(c1)/C(=C\c1c(C)nc3n1CCS3)C(=O)N2` the TGI was greater than 100 µM.
Work on `CC1=NN(C(=O)CC(=O)Nc2ccc(C)cc2)C(=O)C1N=Nc1ccc(C(=O)O)cc1` (stereo unspecified) yielded a TGI greater than 100 µM.
In the case of `Cc1cc([C@H](C#N)c2nc3ccccc3[nH]2)nc(Cl)n1`, the TGI is reported as greater than 100 µM.
In the case of `CN(C)C=Nc1cccc2nsnc12`, the TGI is reported as greater than 100 µM.
In the case of `COc1cccc(OC/C(N=Cc2cccnc2)=N/NC(=O)c2ccncc2)c1`, the TGI is reported as greater than 100 µM.
`COC(=O)c1c(O)ccc2c1c1c(n2Cc2ccccc2)C(=O)c2ccccc2C1=O` gave a TGI of 26.2 µM.
In the case of `N#C/C(=C\c1cn(Cc2ccccc2)c2ccccc12)c1nn(-c2ccccc2)c(N)c1C#N`, the TGI is reported as 21.9 µM.
In the case of `CO[C@H]1c2cccc3cccc(c23)[C@@H]1n1[nH]c(=O)n(C(C)(C)C)c1=O`, the TGI is reported as greater than 100 µM.
Work on `CCC(C)C(C(=O)N/N=C1/SCC(=O)N1c1ccccc1)C(=O)N/N=C1/SCC(=O)N1c1ccccc1` (stereo unspecified) yielded a TGI greater than 100 µM.
`Cc1c(C)c2c(c(N)c1C#N)C(=O)N(CCc1ccccc1)C2=O` showed a TGI greater than 100 µM.

These compounds were tested on PC-3 prostate (assay: growth of human tumour cells (NCI), 48 h).
`Nc1nc(N)c2cc(Sc3ccc4nc(N)nc(N)c4c3)ccc2n1` was tested, and the TGI was greater than 100 µM.
In the case of `COc1ccc2c(c1)/C(=C\c1c(C)nc3n1CCS3)C(=O)N2`, the TGI is reported as 55.2 µM.
Work on `CC1=NN(C(=O)CC(=O)Nc2ccc(C)cc2)C(=O)C1N=Nc1ccc(C(=O)O)cc1` (stereo unspecified) yielded a TGI greater than 100 µM.
In the case of `Cc1cc([C@H](C#N)c2nc3ccccc3[nH]2)nc(Cl)n1`, the TGI is reported as greater than 100 µM.
Work on `CN(C)C=Nc1cccc2nsnc12` yielded a TGI greater than 100 µM.
`COc1cccc(OC/C(N=Cc2cccnc2)=N/NC(=O)c2ccncc2)c1` was tested, and the TGI was greater than 100 µM.
With `COC(=O)c1c(O)ccc2c1c1c(n2Cc2ccccc2)C(=O)c2ccccc2C1=O` the TGI was 29.4 µM.
Compound `N#C/C(=C\c1cn(Cc2ccccc2)c2ccccc12)c1nn(-c2ccccc2)c(N)c1C#N` has a TGI of 19.8 µM.
`CO[C@H]1c2cccc3cccc(c23)[C@@H]1n1[nH]c(=O)n(C(C)(C)C)c1=O` gave a TGI greater than 100 µM.
